{
  "source": "patent US20170114029A1",
  "about": "“TREATMENT OF CHAGAS DISEASE” (UNIVERSITY OF DUNDEE, priority 2014, published 2017)",
  "data": [
    {"test_system": "T. cruzi Tulahuen strain C2C4", "assay": "Activity against T. cruzi (beta-galactosidase expressing parasites in L-6 cells)", "assay_type": "cell-based, Trypanosoma cruzi", "conditions": "Trypanosoma cruzi, TULAHUEN, L6, in Rattus norvegicus, 96 h, trypomastigotes in rat skeletal myoblasts (L-6 cells), 96 h incubation, CPRG/Nonidet read at 540 nm; read-out: Activity (IC50)", "experimental": "(§1) Activity against T. cruzi. Rat skeletal myoblasts (L-6 cells) were seeded in 96-well microtitre plates at 2000 cells/well in 100 μL RPMI 1640 medium with 10% FBS and 2 mM 1-glutamine. After 24 h the medium was removed and replaced by 100 μl per well containing 5000 trypomastigote forms of T. cruzi Tulahuen strain C2C4 containing the […] (Lac Z) gene (Buckner et al. 1996). After 48 h the medium was removed from the wells and replaced by 100 μl fresh medium with or without a serial drug dilution of eleven 3-fold dilution steps covering a range from 100 to 0.002 μg/ml. After 96 h of incubation the plates were inspected under an inverted microscope to assure growth of the controls and sterility. Then the substrate CPRG/Nonidet (50 μl) was added to all wells. A color reaction developed within 2-6 h and could be read photometrically at 540 nm. Data were analyzed with the graphic programme Softmax Pro (Molecular Devices), which calculated IC50 values by linear regression (Huber 1993) from the sigmoidal dose inhibition curves. Benznidazole is used as control (IC50 0.5±0.2 ug/ml). • Buckner, F. S., C. L. Verlinde, A. C. La Flamme, and W. C. Van Voorhis. 1996. Efficient technique for screening drugs for activity against Trypanosoma cruzi using parasites expressing beta-galactosidase, p. 2592-2597, vol. 40. • Huber, W. Koella, J. C. 1993. A comparison of the three methods of estimating EC50 in studies of drug resistance of malaria parasites. Acta Trop. 55, 257-261.", "units": {"IC50": "µg/mL"}, "values": [
      {"smiles": "CC(=O)Nc1ccc2[nH]c(=O)n(C3CCC(C)CC3)c(=O)c2c1", "note": "(stereo not shown) [Example 59, N-(3-(4-methylcyclohexyl)-2,4-dioxo-1,2,3,4-tetrahydroquinazolin-6-yl)acetamide]", "IC50": 0.329},
      {"smiles": "CC(=O)Nc1ccc2[nH]c(=O)n(CCC(C)C)c(=O)c2c1", "note": "[Example 4, N-(3-Isopentyl-2,4-dioxo-1,2,3,4-tetrahydroquinazolin-6-yl)acetamide]", "IC50": 2.81},
      {"smiles": "CCOC(=O)Nc1ccc2c(c1)c(=O)n(CCC1CCCCC1)c(=O)n2CC", "note": "[Example 13c, Ethyl (3-(2-cyclohexylethyl)-1-ethyl-2,4-dioxo-1,2,3,4-tetrahydroquinazolin-6-yl)carbamate]", "IC50": 5.23},
      {"smiles": "Cc1noc(C)c1-c1ccc2[nH]c(=O)n(CCC3CCCCC3)c(=O)c2c1", "note": "[Example 16c, 3-(2-Cyclohexylethyl)-6-(3,5-dimethylisoxazol-4-yl)quinazoline-2,4(1H,3H)-dione]", "IC50": 11.5},
      {"smiles": "CCC1CCC(n2c(=O)[nH]c3ccc(N)cc3c2=O)CC1", "note": "(racemic) [24 (rac), 6-Amino-3-(4-ethyl-cyclohexyl)-1H-quinazoline-2,4-dione]", "IC50": 0.022},
      {"smiles": "CCC[C@H]1CC[C@H](n2c(=O)[nH]c3ccc(NC(C)=O)cc3c2=O)CC1", "note": "[Example 58, N-(2,4-Dioxo-3-((1s,4r)-4-propylcydohexyl)-1,2,3,4-tetrahydroquinazolin-6-yl)acetamide]", "IC50": 0.007},
      {"smiles": "CC(=O)Nc1ccc2[nH]c(=O)n(C(CC3CCCCC3)C(N)=O)c(=O)c2c1", "note": "(stereo not shown) [Example 7, 2-(6-Acetamido-2,4-dioxo-1,4-dihydroquinazolin-3(2H)-yl)-3-cyclohexylpropanamide]", "IC50": 63.6},
      {"smiles": "CC(C)(C)[C@H]1CC[C@H](n2c(=O)[nH]c3ccc(N)cc3c2=O)CC1", "note": "[23b (trans), 6-amino-3-(trans-4-tert-butyl-cyclohexyl)-1H-quinazoline-2,4-dione]", "IC50": 0.03},
      {"smiles": "CC(C)(C)[C@H]1CC[C@@H](n2c(=O)[nH]c3ncc(N)cc3c2=O)CC1", "note": "[Example 27, 6-Amino-3-((1 S,4S)-4-(tert-butyl)-cyclohexyl)pyrido[2,3-d]pyrimidine-2,4(1H.3H)-dione]", "IC50": 0.289},
      {"smiles": "CC(=O)Nc1ccc2[nH]c(=O)n([C@H]3CC[C@H](C(C)C)CC3)c(=O)c2c1", "note": "[Example 48, N-(3-((1r,4r)-4-Isopropylcyclohexyl)-2,4-dioxo-1,2,3,4-tetrahydroquinazolin-6-yl)acelamide]", "IC50": 0.018},
      {"smiles": "CC(=O)N(C)c1ccc2c(c1)c(=O)n(CCC1CCCCC1)c(=O)n2C", "note": "[Example 11, N-(3-(2-cyclohexylethyl)-1-methyl-2,4-dioxo-1,2,3,4-tetrahydroquinazolin-6-yl)-N-methylacetamide]", "IC50": 6.44},
      {"smiles": "CC(=O)Nc1ccc2[nH]c(=O)n([C@H]3CC[C@@H](C(C)(C)C)CC3)c(=O)c2c1", "note": "[Example 50, N-(3-((1s,4s)-4-(Tert-butyl)cyclohexyl)-2,4-dioxo-1,2,3,4-tetrahydroquinazolin-6-yl)acetamide]", "IC50": 0.005},
      {"smiles": "CC(=O)Nc1ccc2[nH]c(=O)n(C3C4CC5CC(C4)CC3C5)c(=O)c2c1", "note": "(stereo not shown) [Example 51, N-(3-((1r,3r,5r,7r)-adamantan-2-yl)-2,4-dioxo-1,2,3,4-tetrahydroquinazolin-6-yl)acetamide]", "IC50": 0.178},
      {"smiles": "CC(C)(C)C1CCC(n2c(=O)[nH]c3ccc(-c4ccncc4)cc3c2=O)CC1", "note": "(stereo not shown) [Example 21c, 3-(4-(tert-butyl)cyclohexyl)-6-(pyridin-4-yl)quinazoline-2,4(1H,3H)-dione]", "IC50": 0.892},
      {"smiles": "CC(=O)Nc1ccc2[nH]c(=O)n([C@H]3CCO[C@@H](C(C)(C)C)C3)c(=O)c2c1", "note": "[Example 61, N-(3-((2R,4S)-2-(Tert-butyl)tetrahydro-2H-pyran-4-yl)-2,4-dioxo-1,2,3,4-tetrahydroquinazolin-6-yl)acetamide]", "IC50": 0.744},
      {"smiles": "CC(=O)Nc1ccc2[nH]c(=O)n(C3CCCCCC3)c(=O)c2c1", "note": "[Example 46, N-(3-Cycloheptyl-2,4-dioxo-1,2,3,4-tetrahydro-quinazolin-6-yl)acetamide]", "IC50": 0.661},
      {"smiles": "CC(=O)Nc1ccc2[nH]c(=O)n(CCC3CCCCC3)c(=O)c2c1", "note": "[Example 3, N-[3-(2-Cyclohexylethyl)-2,4-dioxo-1,2,3,4-tetrahydroquinazolin-6-yl]acetamide]", "IC50": 0.162},
      {"smiles": "CCC[C@H]1CC[C@@H](n2c(=O)[nH]c3ccc(NC(C)=O)cc3c2=O)CC1", "note": "[Example 57, N-(2,4-Dioxo-3-((1r,4s)-4-propylcyclohexyl)-1,2,3,4-tetrahydroquinazolin-6-yl)acetamide]", "IC50": 0.06}
    ]},
    {"test_system": "T. cruzi Tulahuen strain C2C4", "assay": "Activity against T. cruzi (beta-galactosidase expressing parasites in L-6 cells)", "assay_type": "cell-based, Trypanosoma cruzi", "conditions": "trypomastigotes in rat skeletal myoblasts (L-6 cells), 96 h incubation, CPRG/Nonidet read at 540 nm", "experimental": "as §1", "units": {"Activity (IC50)": "µg/mL"}, "values": [
      {"smiles": "CC(C)[C@H]1CC[C@H](n2c(=O)[nH]c3ccc(N)cc3c2=O)CC1", "note": "[25 (trans), 6-Amino-3-((1 r,4r)-4-isopropylcyclohexyl)quinazoline-2,4(1H,3H)-dione]", "Activity (IC50)": 0.008}
    ]}
  ]
}
